Measurements taken from patent publication US6933290B2, “2-{N-(2-amino-3-(heteroaryl or aryl)propionyl)-aminoacyl}-amino}-alkylboronic acid derivatives” (Novartis AG, priority 2001, dated 2005).

Target: T1, chymotrypsin-like activity of the 20S proteasome (Homo sapiens, UniProt P20618+P28074)
T1 construct: purified human placenta 20S proteasome; tissue Diabetes Forschungsinstitut, Düsseldorf, Germany; host or cells: human placenta
Assay: Inhibition of the chymotrypsin-like activity of the 20S proteasome (Suc-LLVY-AMC hydrolysis)
Assay type: biochemical
Settings: purified human placenta 20S proteasome, Suc-LLVY-AMC substrate, read-out: IC50 [μM] (results of one or two experiments)
Description: It is based on the hydrolysis of the fluorogenic peptide Suc-LLVY-AMC (Succinyl-leucine-leucine-vatine-tyrosine-7-amino-4-methyl-coumarin), which is cleaved exclusively at the Y-AMC bond by the 20S proteasome. Hydrolysis of this peptide is accompanied by an increase in fluorescence intensity (λex (excitation wavelength): 355 nm; μem (emission wavelength): 460 nm) due to release of the […] that accompanies diffusion apart of the hydrolysis product Suc-LLVY.
2 μl of a 1 mM solution of a test compound in DMSO (dimethylsulfoxide, 20 μM final concentration in the well) are preincubated for 60 min at room temperature in black 96-well microtiter plates together with a mixture of 1 μl purified human placenta 20S proteasome (Diabetes Forschungsinstitut, DÜsseldorf, Germany; about 100 ng proteasome, depending on the proteasome preparation) and 47 μl buffer-Ca (5 mM CaCl2, 20 mM Tris/HCl (Tris-(hydroxymethyl)-amino-methane hydrochloride) pH 8.0). 3 μl of a 2.67 mM solution of Suc-LLVY-AMC (Bachem, Switzerland) in DMSO (80 μM final concentration in the well) and 47 μl buffer-Ca are mixed and added. The resulting mixture is incubated for 3-24 h at 37° C. If desired, proteolysis of the substrate can be stopped by addition of 50 μl stop solution (100 mM monochloroacetic acid, 130 mM NaOH, 100 mM acetic acid, pH=4.3). The fluorescence is monitored with a FLUOROSKAN ASCENT™ microtiter plate reader.
For each measurement series two control experiments are carried out: • 1.) 0% value: 2 μl DMSO are used in the above described assay instead of 2 μl of a 1 mM solution of a test compound in DMSO and 48 μl buffer-Ca instead of a mixture of 47 μl buffer-Ca and 1 μl purified proteasome. • 2.) 100% value: in the above described assay 2 μl DMSO are used instead of 2 μl of a 1 mM solution of the test compound in DMSO. Calculation [formula]
The IC50 value is defined as that concentration of a compound at which the remaining activity is 50% compared to the […].

Molecule	IC50 [µM]
COc1ccc(C[C@H](Nc2cccc(-c3ccccc3)c2)C(=O)N[C@@H](C)C(=O)N[C@@H](CC(C)C)B2O[C@@H]3C[C@@H]4C[C@@H](C4(C)C)[C@]3(C)O2)cc1 [Example 41, (S)-2-(Biphenyl-3-ylamino)-3-(4-methoxy-phenyl)-N-{(S)-1-[(R)-3-methyl-1-((1S,2S,6R,8S)-2,9,9-trimethyl-3,5-dioxa-4-bora-tricyclo[6.1.1.0^2,6]dec-4-yl)-butylcarbamoyl]-ethyl}-propionamide]	0.0012
COc1ccc(C[C@H](Nc2cccc(-c3ccccc3)c2)C(=O)N[C@@H](C)C(=O)N[C@@H](CC(C)C)B2O[C@@H]3C[C@@H]4C[C@@H](C4(C)C)[C@]3(C)O2)cc1OC [Example 43, (S)-2-(Biphenyl-3-ylamino)-3-(3,4-dimethoxy-phenyl)-N-{(S)-1-[(R)3-methyl-1-((1S,2S,6R,8S)-2,9,9-trimethyl-3,5-dioxa-4-bora-tricyclo[6.1.1.0^2,6]dec-4-yl)-butylcarbamoyl]-ethyl}-propionamide]	0.0018
COc1ccc(C[C@H](Nc2cccc(-c3ccccc3)c2)C(=O)N[C@@H](C)C(=O)N[C@@H](CC(C)C)B(O)O)cc1OC [Example 44, (R)-1-{(S)-2-[(S)-2-(Biphenyl-3-ylamino)-3-(3,4-dimethoxy-phenyl)-propionylamino]-propionylamino}-3-methyl-butylboronic acid]	0.001
COc1cc(C[C@H](Nc2cccc(C(C)C)c2)C(=O)N[C@@H](C)C(=O)N[C@@H](CC(C)C)B2O[C@@H]3C[C@@H]4C[C@@H](C4(C)C)[C@]3(C)O2)cc(OC)c1OC [Example 45, (S)-2-(3-Isopropyl-phenylamino)-N-{(S)-1-[(R)-3-methyl-1-((1S,2S,6R,8S)-2,9,9-trimethyl-3,5-dioxa-4-bora-tricyclo[6.1.1.0^2,6]dec-4-yl)-butylcarbamoyl]-ethyl}-3-(3,4,5-trimethoxy-phenyl)-propionamide]	0.0013
COc1ccc(C[C@H](NC(=O)CCc2ccccc2)C(=O)N[C@@H](C)C(=O)N[C@@H](CC(C)C)B2O[C@@H]3C[C@@H]4C[C@@H](C4(C)C)[C@]3(C)O2)c(OC)c1OC [Example 47, (S)-N-{(S)-1-[(R)-3-Methyl-1-((1S,2S,6R,8S)-2,9,9-trimethyl-3,5-dioxa-4-bora-tricyclo[6.1.1.0^2,6]dec-4-yl)-butylcarbamoyl]-ethyl}-2-(3-phenyl-propionylamino)-3-(2.3.4 trimethoxy-phenyl)-propionamide]	0.0008
COc1ccc(C[C@H](NC(=O)CCc2ccccc2)C(=O)N[C@@H](C)C(=O)N[C@@H](CC(C)C)B(O)O)c(OC)c1OC [Example 48, (R)-3-Methyl-1-{(S)-2-[(S)-2-(3-phenyl-propionylamino)-3-(2,3,4-trimethoxyphenyl)-propionylamino]-propionylamino}-butylboronic acid]	0.0007
(R)-1-{(S)-2-[(S)-2-(3-Isopropyl-phenylamino)-3-(3,4,5-trimethoxy-phenyl)-propionylamino]-propionylamino}-3-methyl-butylboronic acid [Example 46]	0.0019
(R)-1-{(S)-2-[(S)-2-(Biphenyl-3-ylamino)-3-(3,4,5-trimethoxy-phenyl)-propionylamino]-4-methyl-pentanoylamino}-3-methyl-butylboronic acid [Example 34]	0.0013

Further lines, results first:

IC50 [µM]	Molecule
0.0019	COc1ccc(C[C@H](Nc2cccc(-c3ccccc3)c2)C(=O)N[C@@H](C)C(=O)N[C@@H](CC(C)C)B(O)O)cc1 [Example 42, (R)-1-{(S)-2-[(S)-2-(Biphenyl-3-ylamino)-3-(4-methoxy-phenyl)-propionylamino]-propionylamino}-3-methyl-butylboronic acid]
0.0023	COc1cc(C[C@H](Nc2cccc(-c3ccccc3)c2)C(=O)N[C@H](C(=O)N[C@@H](Cc2ccccc2)B(O)O)C(C)C)cc(OC)c1OC [Example 50, (R)-1-{(S)-2-[(S)-2-(Biphenyl-3-ylamino)-3-(3,4,5-trimethoxy-phenyl)-propionylamino]-3-methyl-butyrylamino}-2-phenyl-ethylboronic acid]
0.0043	COc1ccc(C[C@H](Nc2cccc(-c3ccccc3)c2)C(=O)N[C@H](C(=O)N[C@@H](Cc2ccccc2)B2O[C@@H]3C[C@@H]4C[C@@H](C4(C)C)[C@]3(C)O2)C(C)C)cc1 [Example 51, (S)-2-[(S)-2-(Biphenyl-3-ylamino)-3-(4-methoxy-phenyl)-propionylamino]-3-methyl-N-[(R)-2-phenyl-1-((1S,2S,6R,8S)-2,9,9-trimethyl-3,5-dioxa-4-bora-tricyclo[6.1.1.0^2,6]dec-4-yl)-ethyl]-butyramide]
0.005	COc1ccc(C[C@H](Nc2cccc(-c3ccccc3)c2)C(=O)N[C@H](C(=O)N[C@@H](Cc2ccccc2)B(O)O)C(C)C)cc1 [Example 52, (R)-1-{(S)-2-[(S)-2-(Biphenyl-3-ylamino)-3-(4-methoxy-phenyl)-propionylamino]-3-methyl-butyrylamino}-2-phenyl-ethylboronic acid]
